Data on 66 compounds can be found in a melting point compilation (Tetko et al.; mined from patent text by program, amines drawn as free bases though some values may be those of a salt).

The term melting point denotes the temperature, or range, at which the solid turns liquid. With `N#Cc1cc2c(cc1F)OCC21C(=O)N(Cc2ncccc2C(F)(F)F)c2ccccc21` (stereo unspecified), the melting point was 209 to 211 °C.

`CCn1c2ccccc2c2cc(NC(=O)c3ccccc3C(F)(F)F)ccc21` gave a melting point of 206 to 207 °C.

Regarding `COc1c(-c2ccc(O)c(O)c2)oc2cc(O)c(CC=C(C)CCC=C(C)C)c(O)c2c1=O`, the melting point fell in the range of 98 to 99 °C.

Compound `CCOC(=O)c1cnc(Nc2ccccc2OC)[nH]c1=O` returned a melting point of 217 to 219 °C.

Compound `CCn1cc(C(=O)O)c(=O)c2cc(F)c(N3CCSC3)cc21` came in with a melting point of 270 to 273 °C.

With `CC(C)C1C(=O)N(Cc2ccccc2)S(=O)(=O)N1C` (stereo unspecified), the melting point fell in the range of 52.5 to 54 °C.

As to `COC(=O)c1scc2nc(SCc3cc(OC)ccn3)[nH]c12`, the melting point lay within 156 to 160 °C.

Take `O=C(OCCc1ccccc1)c1ccc2cc(O)c(O)cc2c1`: the melting point lay within 175 to 176 °C.

On to `O=C(c1ccc(Cl)cc1)c1cc2ccccc2cn1`, for which the melting point lay within 126 to 127 °C.

Regarding `Nc1ncccc1-c1nc2cc(C3CCCC3)cnc2n1-c1ccc(CNC(=O)c2ccccc2)cc1`, the melting point is 210 to 211 °C.

`C[Si](C)(C)c1cc(C(=O)O)cc([Si](C)(C)C)c1` registered a melting point of over 300 °C.

As for `CC1(C)CC(OC(=O)c2ccccc2)CC(C)(C)N1O`, the melting point was 145 to 149 °C.

`CCCCNC(=O)Cc1ccc2c(c1)c(Cc1ccc(C(=O)NS(=O)(=O)c3ccccc3C)cc1OC)cn2C` yielded a melting point of 108 to 110 °C.

Regarding `CNC[C@@H](O)c1cc2ccccc2o1`, the melting point is 88 to 90 °C.

Consider `O=C(c1ccc(F)c(Cc2ccc(=O)[nH]n2)c1)c1c(Cl)cc(Cl)cc1Cl`, for which the melting point is 185 °C.

With `CCOC(=O)c1oc2cc(SC(=O)N(C)C)ccc2c1C`, the melting point lay in the range of 112 to 114 °C.

`O=C(Nc1cccnc1)N1CCN(c2cc(-c3ccc(F)cc3F)ncn2)CC1` returned a melting point of 171 to 172 °C.

For the compound `O=C=Nc1ccc(N2CCOCC2)cc1`, the melting point lay in the range of 221 to 225 °C.

In the case of `CC(=O)Oc1ccc2nc(S(N)(=O)=O)sc2c1`, the melting point was 193 to 194 °C.

As to `NCC1Cc2cccc3cccc1c23` (stereo unspecified), the melting point is over 250 °C.

With `COc1ccc2c(=O)c(-c3ccc(OCC4CO4)cc3)coc2c1` (stereo unspecified), the melting point was 153 to 154 °C.

For `CC1CC(=O)c2ccc(C(C)C(=O)O)cc2C1` (stereo unspecified), the melting point fell in the range of 196 to 199 °C.

`FC(F)(F)/C(=C(\c1ccccc1)c1ccc(OCCN2CCOCC2)cc1)c1ccccc1` returned a melting point of 84 to 89 °C.

`CCCCCC(O)/C=C/n1ccnc1` (stereo unspecified) yielded a melting point of 145 to 148 °C.

In turn, `Nc1sc2c(c1C(=O)c1ccccn1)CCN(Cc1ccccc1)C2` came in with a melting point of 67 to 71 °C.

On to `Clc1ccc(OCC2CCCC(OC(CBr)c3ccc(Cl)cc3Cl)O2)c(Cl)c1` (stereo unspecified), for which the melting point was 104 to 105 °C.

The compound `O=C(c1ccc(C(F)(F)F)cc1S(=O)c1ccc(Cl)cc1)c1cnoc1C1CC1` (stereo unspecified) gave a melting point of 151 °C.

Regarding `COC(=O)CCn1c2ccc(O)cc2c2c3c(c(-c4ccccc4Cl)cc21)C(=O)NC3=O`, the melting point was in the range of 218 to 220 °C.

Regarding `CC1(C)CCC(C)(C)C1C(=O)O`, the melting point amounted to 114 °C.

On to `CCOc1cc(C)c(Cl)cc1S(N)(=O)=O`, for which the melting point was in the range of 153 to 155 °C.

With `Cc1sc(N2CCOCC2)nc1/C=C/c1cn(-c2ccccc2)nc1O`, the melting point is 278 to 279 °C.

Compound `COc1cc(N)c(Cl)cc1C(=O)NC1CCN(C)C1` (stereo unspecified) showed a melting point of 185 to 187 °C.

For the compound `COc1ccc(CNc2ccccc2C(=O)Nc2cccc(C(F)(F)F)c2C)cn1`, the melting point is 134 to 135 °C.

Regarding `CCCCCCCCC(=O)NC1CC(C)(C)N(CC#N)C(C)(C)C1`, the melting point was 68 °C.

On to `Cc1cccc(C)c1-c1nc2ccccc2n2cncc12`, for which the melting point fell in the range of 115 to 125 °C.

For `Cc1ccc(N2C(=O)C(O)=C(C(=O)c3ccc(C(C)C)cc3)C2c2ccc(F)cc2)nn1` (stereo unspecified), the melting point was in the range of 273 to 278 °C.

In the case of `Cc1cc(O)c(CCN(C)C)c(C)c1C`, the melting point turned out to be 72 °C.

On to `c1ccc(Nc2ccc(Cc3ccc(Nc4ccccc4)c4ccccc34)c3ccccc23)cc1`, for which the melting point fell in the range of 154 to 157 °C.

In the case of `CCCN(CCC)CCCC1CCN(CCNC(=O)N2c3ccccc3NC(=O)c3csc(C)c32)CC1`, the melting point fell in the range of 114 to 115 °C.

Compound `CC(C)c1cc2nc(N)sc2cc1SC1=C(O)C[C@@](CCc2ccccc2)(C(C)C)OC1=O` had a melting point of 197 to 199 °C.

As to `CC(C)(C)c1ccc(S(=O)(=O)N2CCCC2=O)cc1`, the melting point was in the range of 131 to 133 °C.

As for `O=C1Nc2cc(Cl)ccc2C1c1ncnc2c1cnn2C1CCCC1` (stereo unspecified), the melting point lay in the range of 288 to 291 °C.

The compound `C=CC(=O)Nc1ccc2[nH]nnc2c1` displayed a melting point of 248 to 253 °C.

In turn, `COc1cc(OC)c(OC)cc1CN1CCc2cc(O)ccc2C1` yielded a melting point of 188 to 191 °C.

`O=C(CC1CCOCC1)Oc1cc(=O)n(-c2ccccc2)c2ncccc12`: the melting point fell in the range of 169 to 171 °C.

`CCc1sc2ncccc2c1S(=O)(=O)Nc1onc(C)c1Cl` showed a melting point of 152 to 154 °C.

Turning to `CC(=O)OC1=C(c2ccccc2)C(=O)N(C(C)(C)c2ccccc2)C1`, the melting point was in the range of 149 to 150 °C.

Take `CCCCOc1ccc(S(=O)(=O)C2(C(=O)O)CCN(Cc3ccc(F)cc3)CC2)cc1`: the melting point was found to be 112 °C.

For `CCOC(=O)c1cc(=O)c2cccc(NC(=O)c3ccc4c(c3)CC(CSCc3ccccc3)O4)c2o1` (stereo unspecified), the melting point was in the range of 175 to 177 °C.

Take `CCCCOc1ccc2nc(C(C)=O)c(O)cc2c1`: the melting point lay in the range of 71 to 73 °C.

Consider `OCc1ccccc1-c1nc(-c2ccc(Cl)cc2)n[nH]1`, for which the melting point was in the range of 252 to 254 °C.

In turn, `COC(=O)C1CCSC(C)(C)C(=O)N1` (stereo unspecified) gave a melting point of 172 to 174 °C.

`COc1ccc(C2(c3ccc(OC)cc3)C(Cl)(Cl)C23CCCCC3)cc1` yielded a melting point of 121 to 122 °C.

In turn, `N#CC(N=C(c1ccccc1)c1ccccc1)c1ncc(C(F)(F)F)cc1Cl` (stereo unspecified) gave a melting point of 105 to 108 °C.

`Clc1ccc2c(c1)-c1[nH]ncc1CO2` yielded a melting point of 175 to 176 °C.

`CCNC(=O)C(C)(C)COc1cccc2nc(C)c(C(=O)O)c(N)c12` showed a melting point of 168 to 170 °C.

Turning to `N#Cc1ccc(C(=O)c2ccccc2S)cc1`, the melting point was in the range of 98 to 100 °C.

The compound `NS(=O)(=O)c1cc(C(=O)O)cc(N2CCCC2)c1Oc1ccccc1` showed a melting point of 214 to 217 °C.

`O=C1NC(=O)C2(CC(O)c3ccccc32)N1` (stereo unspecified) gave a melting point of 260 to 263 °C.

With `COc1ccc2[nH]c(C(=O)OC(C)(C)C)c(N)c2c1`, the melting point lay in the range of 146 to 147 °C.

For the compound `Cc1nc2c(s1)-c1nc(Nc3cccc([N+](=O)[O-])c3)ncc1CC2`, the melting point fell in the range of 227 to 228 °C.

Take `Clc1cccc(Nc2nnc(-c3ccc4nonc4c3)s2)c1Cl`: the melting point was 229 to 231 °C.

For the compound `O=C(NCc1ccc(C=NO)cc1Cl)C1CC1`, the melting point was 163 to 166 °C.

For `Cc1cccc(-c2n[nH]cc2-c2ccc(F)c(-c3ccc(S(N)(=O)=O)c(F)c3)c2)n1`, the melting point lay within 119 to 121 °C.

Turning to `CN1CCN(c2cc3nc(C(C)(C)C)sc3cc2NC(=S)N2CCCCC2)CC1`, the melting point is 202 to 206 °C.

`O=C(Cl)Oc1cccc(NC(=O)C2CC2)c1` showed a melting point of 94 °C.
